Results as given in patent US9040715B2 (priority 2008, dated 2015).
Converted amounts (≈) assume the structure as drawn.

Columns and labels:
C. albicans Mutants = test: MIC50 in C. albicans mutant strains; assay type: cell-based; details: Candida albicans
Procedure: The minimum inhibitory concentrations resulting in 50% growth inhibition (MIC50) of […] Candida species (C. albicans, C. tropicalis and C. glabrata, C. lusitaniae, C. parapsilosis, and C. apicola) as well as Aspergillus fumigatus to a set of novel synthetic compounds was determined in accordance with the guidelines in CLSI document M27-A2 (Clinical and Laboratory Standards Institute; Wayne, Pa.). The total volume of cells and drug was 100 μL per microtiter well, and each drug was diluted in RPMI to achieve final concentrations of 0.2-100 μg/ml. Uninoculated cultures were used as a reference standard. Stock inoculum suspensions were prepared from 24 hour cultures on YPD (yeast extract/peptone/dextrose) media at 30° C. For MIC determinations, an inoculum of 1.0×10^3 cells of Candidia and 2.0×10^3 cells of Aspergillus per well were used, and cells in diluted drugs were prepared in RPMI-1640 medium. MICs were determined both visually and spectrophotometrically at 24 hours and 48 h at 550 nm using a micro plate reader. The MIC50 endpoint was measured as the lowest drug concentration resulting in a reduction of growth of 50% or more compared with growth of the control.
The MIC50 of Compounds I-1, I-2, and I-5 in several mutant strains of Candida albicans, including fluconazole resistant clinical strains, was determined according to the methods described in Example 1 (see Table 9). The activity of Compound I-1 against fluconazole resistant strains was further explored (see Table 10). In Table 10, Strain #1 is a fluconazole sensitive Candida albicans strain; Strain #17 is a fluconazole resistant Candida albicans strain; C. albicans CS#01 is a first clinical strain; C. albicans CS#02 is a second clinical strain.

Huh7 cells = test: Neutral red uptake assay (cytotoxicity); assay type: cell-based, human
Excerpt: The neutral red uptake assay is a cytotoxicity test that is based on the ability of viable cells to incorporate and bind the supra-vital dye neutral red in the lysosomes. This weakly cationic dye penetrates cell membranes by non-ionic passive diffusion and concentrates in the lysosomes, where it binds by electrostatic hydrophobic bonds to anionic and phosphate groups of the lysosomal matrix. The dye is then extracted from the viable cells using an acidified ethanol solution, and the absorbance of the solubilized dye is read. When the cell dies or the pH gradient is reduced, the dye is not retained and consequently, the amount of retained dye is proportional to the number of viable cells. Most primary cells and cell lines can be used for this method. The HepG2 and Huh7, two human hepatoma cell lines, were used for this study. The cells were seeded in 96-well tissue culture plates and treated for 48 hours with the compounds. The plates were then incubated for 2 hours with a medium containing neutral red. The cells were subsequently washed, the dye was extracted in each well, and the absorbance was read using a spectrophotometer (FIG. 3 and Table 11).

Candida tropicalis = test: Anti-fungal/anti-yeast activity: MIC50 (broth microdilution) and MFC; assay type: cell-based; details: for MIC: read-out: MIC-50
How it was run: (§1)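 Cells grown 24 h on YPD at 30° C were seeded into RPMI-1640 holding compound (0.2-100 μg/ml final) at 1.0×10^3 Candida or 2.0×10^3 Aspergillus cells per well. After 24 and 48 h, growth was scored by eye and at 550 nm. Wells from 48 h were then plated on YPD for 48 h at 30° C to obtain MFC.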

Candida albicans (CAF-2) = test: as above; assay type: cell-based; details: for MIC: read-out: MIC-50
How it was run: as §1

Candida lusitaniae = test: as above; assay type: cell-based; details: for Activity (fungicidal/fungistatic) / Ratio MFC/MIC: Candida lusitaniae; for MFC / MIC: Clavispora lusitaniae; for MIC: read-out: MIC-50
How it was run: as §1

Candida glabrata = test: as above; assay type: cell-based; details: for Activity (fungicidal/fungistatic) / Ratio MFC/MIC: Candida glabrata; for MFC / MIC: Nakaseomyces glabratus; for MIC: read-out: MIC-50
How it was run: as §1

Candidia parapsilosis = test: as above; assay type: cell-based; details: for Activity (fungicidal/fungistatic) / Ratio MFC/MIC: Candidia parapsilosis; for MIC: read-out: MIC-50
How it was run: as §1

Candida apicola = test: as above; assay type: cell-based; details: for Activity (fungicidal/fungistatic) / MIC-50 / Ratio MFC/MIC: Candida apicola; for MFC: Starmerella apicola
How it was run: as §1

Huh7 or HepG2 cell line = test: MTT assay (cytotoxicity); assay type: cell-based, human; details: 24 hours and 48 hours
Procedure: The MTT assay is a colorimetric assay that measures the reduction of yellow 3-(4,5-dimethylhiazol-2-yl)-2,5-diphenyl tetrazolium bromide (MTT) by mitochondrial succinate dehydrogenase. The MTT enters the cells and passes into the mitochondria where it is reduced to an insoluble, dark purple, formazan product. The cells are then solubilized with an organic solvent (e.g., isopropanol) and the released, solubilized formazan reagent is measured spectrophotometrically. Since reduction of MTT can only occur in metabolically active cells, the level of activity is a measure of the viability of the cells.
Cells of the Huh7 or HepG2 cell line were seeded in a 96 well plate. The plate was incubated overnight at 37° C. in a humidified incubator, 5% CO2. The test compounds were added to the plate. Different concentrations of drug were tested in triplicate along with a negative control. The final volume was adjusted to 100 μl per well. The plate was incubated overnight at 37° C. in a humidified incubator, 5% CO2. After 24 hours and 48 hours, MTT reagent (5 mg/ml, 10 μl/100 μl per well of the 96 well plate) was added and incubated at 37° C. for 3 hours. After 3 hours, 100 μl of the DMSO solution was added to each well and the plate was rocked at room temperature for 1 hour. The plate was then read on a plate reader at […].

[1] = system: Saccharomyces cerevisiae (YPH501); test: Anti-fungal/anti-yeast activity: MIC50 (broth microdilution) and MFC; assay type: cell-based; details: for MFC / MIC: Saccharomyces cerevisiae; for Activity (fungicidal/fungistatic) / Ratio MFC/MIC: Saccharomyces cerevisiae (YPH501); for MIC: read-out: MIC-50
Aspergillus fumigatus = test: as above; assay type: cell-based
How it was run: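 Broth microdilution per CLSI M27-A2 in RPMI-1640, compounds at final 0.2-100 μg/ml; inoculum 1.0×10^3 cells/well for Candida, 2.0×10^3 for Aspergillus, from 24 h YPD cultures at 30° C. Growth read visually and at 550 nm at 24 and 48 h; MIC50 = lowest concentration giving ≥50% growth reduction vs control.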

SMILES: O=C(Cn1sc2ccccc2c1=O)NNC(=O)c1cccc(Cl)c1 [Compound I-5]
- MIC50 (C. albicans Mutants; C. albicans strain CAF-2): 6 µg/mL (≈ 16.6 µM)
- MIC50 (C. albicans Mutants; C. albicans strain CHK11): 6 µg/mL (≈ 16.6 µM)
- MIC50 (C. albicans Mutants; C. albicans strain CHK21): 6 µg/mL (≈ 16.6 µM)
- MIC50 (C. albicans Mutants; C. albicans strain CHK23): 6 µg/mL (≈ 16.6 µM)
- MIC50 (C. albicans Mutants; C. albicans strain GOA31): 6 µg/mL (≈ 16.6 µM)
- MIC50 (C. albicans Mutants; C. albicans strain GOA32): 6 µg/mL (≈ 16.6 µM)
- Percentage Viability (Huh7 cells; 3.3 μg/mL (approx 1X MIC)): >100%
- Percentage Viability (Huh7 cells; 10 μg/mL (approx 3X MIC)): >100%
- Percentage Viability (Huh7 cells; 33 μg/mL (approx 10X MIC)): >100%
- Percentage Viability (Huh7 cells; 100 μg/mL (approx 30X MIC)): 92%
- Activity (fungicidal/fungistatic) (Candida tropicalis): fungicidal (An MFC/MIC ratio of less than four indicates that the compound is fungicidal)
- MFC (Candida tropicalis): 12.5 µg/mL
- Ratio MFC/MIC (Candida tropicalis): 2
- MIC (Candida tropicalis): 6.4 µg/mL
- Activity (fungicidal/fungistatic) (Candida albicans (CAF-2)): fungicidal (An MFC/MIC ratio of less than four indicates that the compound is fungicidal)
- MFC (Candida albicans (CAF-2)): 12.5 µg/mL
- Ratio MFC/MIC (Candida albicans (CAF-2)): 2
- MIC (Candida albicans (CAF-2)): 6.4 µg/mL
- Activity (fungicidal/fungistatic) (Candida lusitaniae): fungicidal (An MFC/MIC ratio of less than four indicates that the compound is fungicidal)
- Ratio MFC/MIC (Candida lusitaniae): 2
- MFC (Candida lusitaniae): 6.4 µg/mL
- MIC (Candida lusitaniae): 3.2 µg/mL
- Activity (fungicidal/fungistatic) (Candida glabrata): fungicidal (An MFC/MIC ratio of less than four indicates that the compound is fungicidal)
- Ratio MFC/MIC (Candida glabrata): 1
- MFC (Candida glabrata): 6.4 µg/mL
- MIC (Candida glabrata): 6.4 µg/mL
- MFC (Candidia parapsilosis): 12.5 µg/mL
- Activity (fungicidal/fungistatic) (Candidia parapsilosis): fungicidal (An MFC/MIC ratio of less than four indicates that the compound is fungicidal)
- Ratio MFC/MIC (Candidia parapsilosis): 2
- MIC (Candidia parapsilosis): 6.4 µg/mL
- Activity (fungicidal/fungistatic) (Candida apicola): fungicidal (An MFC/MIC ratio of less than four indicates that the compound is fungicidal)
- MIC-50 (Candida apicola): 6.4 µg/mL
- Ratio MFC/MIC (Candida apicola): 2
- MFC (Candida apicola): 12.5 µg/mL
- Toxicity to mammalian cell lines (MTT assay) (Huh7 or HepG2 cell line): minimally toxic
- MFC [1]: 3 µg/mL (≈ 8.29 µM)
- Activity (fungicidal/fungistatic) [1]: fungicidal (An MFC/MIC ratio of less than four indicates that the compound is fungicidal)
- Ratio MFC/MIC [1]: 1
- MIC [1]: 3 µg/mL (≈ 8.29 µM)

SMILES: O=C(Cn1sc2ccccc2c1=O)Nc1ccccc1Oc1ccccc1 [Compound I-2]
- MIC50 (C. albicans Mutants; C. albicans strain CAF-2): 3 µg/mL (≈ 7.97 µM)
- MIC50 (C. albicans Mutants; C. albicans strain CHK11): 12.5 µg/mL (≈ 33.2 µM)
- MIC50 (C. albicans Mutants; C. albicans strain CHK21): > 100 µg/mL
- MIC50 (C. albicans Mutants; C. albicans strain CHK23): 25 µg/mL (≈ 66.4 µM)
- MIC50 (C. albicans Mutants; C. albicans strain GOA31): 3 µg/mL (≈ 7.97 µM)
- MIC50 (C. albicans Mutants; C. albicans strain GOA32): 3 µg/mL (≈ 7.97 µM)
- Percentage Viability (Huh7 cells; 3.3 μg/mL (approx 1X MIC)): >100%
- Percentage Viability (Huh7 cells; 10 μg/mL (approx 3X MIC)): >100%
- Percentage Viability (Huh7 cells; 33 μg/mL (approx 10X MIC)): >100%
- Percentage Viability (Huh7 cells; 100 μg/mL (approx 30X MIC)): 75%
- Activity (fungicidal/fungistatic) (Candida tropicalis): fungicidal (An MFC/MIC ratio of less than four indicates that the compound is fungicidal)
- MFC (Candida tropicalis): 3.2 µg/mL
- Ratio MFC/MIC (Candida tropicalis): 1
- MIC (Candida tropicalis): 3.2 µg/mL
- Activity (fungicidal/fungistatic) (Candida albicans (CAF-2)): fungicidal (An MFC/MIC ratio of less than four indicates that the compound is fungicidal)
- MFC (Candida albicans (CAF-2)): 3.2 µg/mL
- Ratio MFC/MIC (Candida albicans (CAF-2)): 1
- MIC (Candida albicans (CAF-2)): 3.2 µg/mL
- Activity (fungicidal/fungistatic) (Candida lusitaniae): fungicidal (An MFC/MIC ratio of less than four indicates that the compound is fungicidal)
- Ratio MFC/MIC (Candida lusitaniae): 2
- MFC (Candida lusitaniae): 3.2 µg/mL
- MIC (Candida lusitaniae): 1.6 µg/mL
- Activity (fungicidal/fungistatic) (Aspergillus fumigatus): fungistatic (an MFC/MIC ratio of greater than four indicates that the compound is fungistatic)
- MFC (Aspergillus fumigatus): 50 µg/mL
- MIC50 (Aspergillus fumigatus): 12.5 µg/mL
- Ratio MFC/MIC (Aspergillus fumigatus): 4
- Activity (fungicidal/fungistatic) (Candida glabrata): fungicidal (An MFC/MIC ratio of less than four indicates that the compound is fungicidal)
- Ratio MFC/MIC (Candida glabrata): 2
- MFC (Candida glabrata): 3.2 µg/mL
- MIC (Candida glabrata): 1.6 µg/mL
- MFC (Candidia parapsilosis): 3.2 µg/mL
- Activity (fungicidal/fungistatic) (Candidia parapsilosis): fungicidal (An MFC/MIC ratio of less than four indicates that the compound is fungicidal)
- Ratio MFC/MIC (Candidia parapsilosis): 2
- MIC (Candidia parapsilosis): 1.6 µg/mL
- Activity (fungicidal/fungistatic) (Candida apicola): fungicidal (An MFC/MIC ratio of less than four indicates that the compound is fungicidal)
- MIC-50 (Candida apicola): 6.4 µg/mL
- Ratio MFC/MIC (Candida apicola): 1
- MFC (Candida apicola): 6.4 µg/mL
- Toxicity to mammalian cell lines (MTT assay) (Huh7 or HepG2 cell line): minimally toxic
- MFC [1]: 3.2 µg/mL (≈ 8.5 µM)
- Activity (fungicidal/fungistatic) [1]: fungicidal (An MFC/MIC ratio of less than four indicates that the compound is fungicidal)
- Ratio MFC/MIC [1]: 2
- MIC [1]: 1.6 µg/mL (≈ 4.25 µM)
